From US7902373B2 (Pfizer Inc, priority 2006, dated 2011)

These compounds were tested against human recombinant H-PGDS (Homo sapiens, UniProt O60760) (assay: Fluorescence intensity h-PGDS TBA enzyme assay). Conditions: Examples up to 622 (and 3a, 3b).
Sequence of human recombinant H-PGDS (O60760 whole entry): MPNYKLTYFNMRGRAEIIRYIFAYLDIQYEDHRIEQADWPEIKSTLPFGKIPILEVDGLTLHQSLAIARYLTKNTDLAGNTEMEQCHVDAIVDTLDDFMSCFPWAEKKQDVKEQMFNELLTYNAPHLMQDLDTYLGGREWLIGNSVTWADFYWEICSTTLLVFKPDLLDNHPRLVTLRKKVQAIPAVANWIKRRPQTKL
Type: biochemical
With `CC(C)(C)OC(=O)c1ccc(N2CCC(NC(=O)c3ccc(-c4cccc(F)c4)nc3)CC2)nc1` [Example 559, tert-Butyl 6-[4-({[6-(3-fluorophenyl)pyridin-3-yl]carbonyl}amino)piperidin-1-yl]nicotinate] the IC50 was 10.6 nM.
For `O=C(O)c1ccc(N2CCC(NC(=O)c3ccc(-c4cccc(F)c4)nc3)CC2)nc1` [Example 560, 6-[4-({[6-(3-Fluorophenyl)pyridin-3-yl]carbonyl}amino)piperidin-1-yl]nicotinic acid], the IC50 was 0.641 nM.
Work on `CCN(CCO)C(=O)c1ccc(N2CCC(NC(=O)c3ccc(-c4cccc(F)c4)nc3)CC2)nc1` [Example 561, N-Ethyl-6-[4-({[6-(3-fluorophenyl)pyridin-3-yl]carbonyl}amino)piperidin-1-yl]-N-(2-hydroxyethyl)nicotinamide] yielded an IC50 of 1.14 nM.
Work on `C=C(C)CN(C)C(=O)c1ccc(N2CCC(NC(=O)c3ccc(-c4cccc(F)c4)nc3)CC2)nc1` [Example 562, 6-[4-({[6-(3-Fluorophenyl)pyridin-3-yl]carbonyl}amino)piperidin-1-yl]-N-methyl-N-(2-methylprop-2-en-1-yl)nicotinamide] yielded an IC50 of 1.74 nM.
Compound `C=CCN(C)C(=O)c1ccc(N2CCC(NC(=O)c3ccc(-c4cccc(F)c4)nc3)CC2)nc1` [Example 563, N-Allyl-6-[4-({[6-(3-fluorophenyl)pyridin-3-yl]carbonyl}amino)piperidin-1-yl]-N-methylnicotinamide] has an IC50 of 0.981 nM.
In the case of `O=C(NC1CCN(c2ccc(C(=O)N3CCC3)cn2)CC1)c1ccc(-c2cccc(F)c2)nc1` [Example 564, N-{1-[5-(Azetidin-1-ylcarbonyl)pyridin-2-yl]piperidin-4-yl}-6-(3-fluorophenyl)nicotinamide], the IC50 is reported as 1.09 nM.
`C#CCN(C)C(=O)c1ccc(N2CCC(NC(=O)c3ccc(-c4cccc(F)c4)nc3)CC2)nc1` [Example 565, 6-[4-({[6-(3-Fluorophenyl)pyridin-3-yl]carbonyl}amino)piperidin-1-yl]-N-methyl-N-prop-2-yn-1-ylnicotinamide] gave an IC50 of 1.05 nM.
Compound `CCN(C)C(=O)c1ccc(N2CCC(NC(=O)c3ccc(-c4cccc(F)c4)nc3)CC2)nc1` [Example 566, N-Ethyl-6-[4-({[6-(3-fluorophenyl)pyridin-3-yl]carbonyl}amino)piperidin-1-yl]-N-methylnicotinamide] has an IC50 of 1.82 nM.
`CC(CO)N(C)C(=O)c1ccc(N2CCC(NC(=O)c3ccc(-c4cccc(F)c4)nc3)CC2)nc1` (centres unmarked) [Example 567, 6-[4-({[6-(3-Fluorophenyl)pyridin-3-yl]carbonyl}amino)piperidin-1-yl]-N-(2-hydroxy-1-methylethyl)-N-methylnicotinamide] gave an IC50 of 0.867 nM.
`O=C(NC1CCN(c2ccc(C(=O)N3CCC(F)C3)cn2)CC1)c1ccc(-c2cccc(F)c2)nc1` (centres unmarked) [Example 568, 6-(3-Fluorophenyl)-N-(1-{5-[(3-fluoropyrrolidin-1-yl)carbonyl]pyridin-2-yl}piperidin-4-yl)nicotinamide] was tested, and the IC50 was 0.649 nM.
With `CN(C(=O)c1ccc(N2CCC(NC(=O)c3ccc(-c4cccc(F)c4)nc3)CC2)nc1)C1CCC1` [Example 569, N-Cyclobutyl-6-[4-({[6-(3-fluorophenyl)pyridin-3-yl]carbonyl}amino)piperidin-1-yl]-N-methylnicotinamide] the IC50 was 2.13 nM.
`CCN(CC)C(=O)c1ccc(N2CCC(NC(=O)c3ccc(-c4cccc(F)c4)nc3)CC2)nc1` [Example 570, N,N-Diethyl-6-[4-({[6-(3-fluorophenyl)pyridin-3-yl]carbonyl}amino)piperidin-1-yl]nicotinamide] showed an IC50 of 1.41 nM.
`O=C(NC1CCN(c2ccc(C(=O)N3CC=CC3)cn2)CC1)c1ccc(-c2cccc(F)c2)nc1` [Example 571, N-{1-[5-(2,5-Dihydro-1H-pyrrol-1-ylcarbonyl)pyridin-2-yl]piperidin-4-yl)-6-(3-fluorophenyl)nicotinamide] showed an IC50 of 1.04 nM.
In the case of `CCCN(C)C(=O)c1ccc(N2CCC(NC(=O)c3ccc(-c4cccc(F)c4)nc3)CC2)nc1` [Example 572, 6-[4-({[6-(3-Fluorophenyl)pyridin-3-yl]carbonyl}amino)piperidin-1-yl]-N-methyl-N-propylnicotinamide], the IC50 is reported as 5.25 nM.
In the case of `O=C(NC1CCN(c2ccc(C(=O)N3CCSC3)cn2)CC1)c1ccc(-c2cccc(F)c2)nc1` [Example 573, 6-(3-Fluorophenyl)-N-{1-[5-(1,3-thiazolidin-3-ylcarbonyl)pyridin-2-yl]piperidin-4-yl}nicotinamide], the IC50 is reported as 1.35 nM.
Compound `CN(CC1CC1)C(=O)c1ccc(N2CCC(NC(=O)c3ccc(-c4cccc(F)c4)nc3)CC2)nc1` [Example 574, N-(Cyclopropylmethyl)-6-[4-({[6-(3-fluorophenyl)pyridin-3-yl]carbonyl}amino)piperidin-1-yl]-N-methylnicotinamide] has an IC50 of 1.24 nM.
In the case of `CC(C)CN(C)C(=O)c1ccc(N2CCC(NC(=O)c3ccc(-c4cccc(F)c4)nc3)CC2)nc1` [Example 575, 6-[4-({[6-(3-Fluorophenyl)pyridin-3-yl]carbonyl}amino)piperidin-1-yl]-N-isobutyl-N-methylnicotinamide], the IC50 is reported as 2.24 nM.
`CN(CCC#N)C(=O)c1ccc(N2CCC(NC(=O)c3ccc(-c4cccc(F)c4)nc3)CC2)nc1` [Example 576, N-(2-Cyanoethyl)-6-[4-({[6-(3-fluorophenyl)pyridin-3-yl]carbonyl}amino)piperidin-1-yl]-N-methylnicotinamide] showed an IC50 of 0.561 nM.
`O=C(NC1CCN(CC(F)(F)F)CC1)c1ccc(N2CCC(NC(=O)c3ccc(-c4cccc(F)c4)nc3)CC2)nc1` [Example 577, 6-(3-Fluorophenyl)-N-{1-[5-({[1-(2,2,2-trifluoroethyl)piperidin-4-yl]amino}carbonyl)pyridin-2-yl]piperidin-4-yl}nicotinamide] showed an IC50 of 1.48 nM.
Work on `CC1C=CC(C)N1C(=O)c1ccc(N2CCC(NC(=O)c3ccc(-c4cccc(F)c4)nc3)CC2)nc1` (centres unmarked) [Example 578, N-(1-{5-[(2,5-Dimethyl-2,5-dihydro-1H-pyrrol-1-yl)carbonyl]pyridin-2-yl}piperidin-4-yl)-6-(3-fluorophenyl)nicotinamide] yielded an IC50 of 3.1 nM.
`O=C(NC1CCN(c2ncc3c(n2)CCOC3)CC1)c1ccc(-c2cccc(F)c2)nc1` [Example 579, N-[1-(7,8-Dihydro-5H-pyrano[4,3-d]pyrimidin-2-yl)piperidin-4-yl]-6-(3-fluorophenyl)nicotinamide] gave an IC50 of 1.05 nM.
In the case of `O=C(NC1CCN(c2cccnn2)CC1)c1ccc(-c2cccc(F)c2)nc1` [Example 580, 6-(3-Fluorophenyl)-N-(1-pyridazin-3-ylpiperidin-4-yl)nicotinamide], the IC50 is reported as 0.35 nM.
`O=C(NC1CCN(CC(F)(F)F)CC1)c1ccc(-c2cc(F)ccc2F)nc1` [Example 583, 6-(2,5-Difluorophenyl)-N-[1-(2,2,2-trifluoroethyl)piperidin-4-yl]nicotinamide] gave an IC50 of 1.05 nM.
For `CCOC(=O)N1CCC(NC(=O)c2ccc(-c3cc(F)ccc3F)nc2)CC1` [Example 584, Ethyl 4-({[6-(2,5-Difluorophenyl)pyridine-3-yl]carbonyl}amino)piperidine-1-carboxylate], the IC50 was 1.38 nM.
`O=C(NC1CCN(CC(F)(F)F)CC1)c1ccc(-c2ccccc2F)nc1` [Example 585, 6-(2-Fluorophenyl)-N-[1-(2,2,2-trifluoroethyl)piperidin-4-yl]nicotinamide] showed an IC50 of 0.734 nM.
`CCOC(=O)N1CCC(NC(=O)c2ccc(-c3ccccc3F)nc2)CC1` [Example 586, Ethyl 4-({[6-(2-fluorophenyl)pyridin-3-yl]carbonyl}amino)piperidine-1-carboxylate] gave an IC50 of 0.787 nM.
